Source: PMC9054876 (Cancer Chemotherapy and Pharmacology, 2022)

Assays:
[1] = parameters: method as in PMID 32562690; settings: cited from earlier work
clinical [2] = settings: for CLpar: typical individual, 500 mg
Excerpt: This step included food status, formulation, and oral dose level.
In the second step, the remaining covariates were further evaluated, including demographics (age, body weight, race, and sex), patient characteristics (disease status, i.e., patient or healthy participant, tumor type, National Cancer Institute Organ Dysfunction Working Group [NCI-ODWG] classification of liver impairment, and baseline tumor burden), laboratory values (serum albumin, total bilirubin, alkaline phosphatase, international normalized ratio, and total protein), and co-medications (opioid analgesics and gefitinib).
SCM was applied in the structural covariate model building step, followed by an adaptive scope reduction (ASR) SCM in the following covariate searching step to reduce run times. For the SCM procedures, the forward selection p value was set to 0.01, and the backward elimination p value to 0.001. The ASR threshold p value was set to the same as the forward p value of 0.01.
Continuous covariate relationships were coded as power models (Formula 1), and categorical covariates were coded as a fractional difference to the most common category (Formula 2). An alternative ‘hockey-stick’ parameterization (Formula 3) was tested for dose as continuous covariate on bioavailability of the parent drug (Par).1 ParCovm=Cov/Covref^θm 2 ParCovm=1ifCov=Covref1+θmifCov≠Covref 3 ParCovm=1+θm1·Cov-CovrefifCov≤Covref1+θm2·Cov-CovrefifCov>Covref
Model selection and qualification was based on the changes in the objective function value (OFV) provided by NONMEM and the visual inspection of graphical diagnostics, including goodness-of-fit plots and visual predictive checks (VPCs).
The population PK analyses were performed using NONMEM version 7.3.0. Data management and further processing of NONMEM output were performed using R version 3.3.3. VPCs and covariate model building were run on PsN version 4.4.8.
The IIV terms are included on CLpar, first-order absorption rate constant (ka), zero-order absorption duration (D1), and bioavailability of parent drug (Fpar).

[3] = oral, cited from earlier work
[4] = Bootstrap-derived secondary PK parameters, forest plots and model-based simulation
Excerpt: (§1) The association or lack of association between the observed covariates and model-derived secondary PK parameters [e.g., area under the concentration–time curve over the dosing interval at steady state (AUCτ,ss)] for patients with cancer was illustrated using bootstrap analysis-based forest plots (see ESM 1 for method details). In the bootstrap analysis, N = 100 new data sets were generated with replacement from the analysis data set. The sampling was stratified by study, and the final models were fit to each of the resampled data sets. […] For categorical covariates, the mean and its 5th and 95th percentiles of PK parameters for each category were computed. For continuous covariates, the mean and its 5th and 95th percentiles of PK parameters, corresponding to the 0–5th and 95–100th percentile of the covariate, were computed. The impact of the covariates in the forest plots were presented on a relative scale. The reference value was the arithmetic mean of the corresponding PK parameter.
(§2) The derivation of these secondary PK parameters is based on a bootstrap analysis (see following). Only participants with at least one observation above the lower limit of quantitation in the analysis data set were included in the derivation of the secondary parameters.
(§3) In the bootstrap analysis, N = 100 new data sets (with the participants in the analysis data sets with at least one observation with the same number of participants as in the analysis data sets) were drawn with replacement from the analysis data sets. The sampling was stratified by study. The final models were fit to each of the resampled data sets.
(§4) For each of the N = 100 population parameter vectors, the n observed covariate vectors were used to predict the corresponding n primary and secondary parameters, where n = the unique combination of ID and the time-varying variables formulation, μ-opioids and dose (while National Cancer Institute Organ Dysfunction Group (NCI-ODG) class was handled as a time-varying covariate in the stepwise covariate method (SCM), its baseline value was used in the derivation of the forest plots since NCI-ODG class is derived from total bilirubin, alanine aminotransferase and aspartate aminotransferase, which were also assumed to be time-constant in the forest plot).
(§5) Descriptive statistics (mean, standard deviation and the 5th and 95th percentiles) were calculated for the n secondary parameters. These summary statistics are the bootstrap estimates of the typical individual value, standard error, and 90% confidence interval of the secondary parameters.

clinical [5] = settings: human, in vivo, po
Excerpt: as §1, §2, §3, §4, §5

[6] = cited from earlier work
[7] = high-fat meal, healthy participants; cited from earlier work
[8] = cited from earlier work; remark: listed apart in the source
[9] = parameters: method as in manuscript in preparation; settings: 500 mg single dose TF2, non-compartmental analysis; ref manuscript in preparation; cited from earlier work
[10] = CF1 vs typical participant taking TF2 with a non-high-fat meal
[11] = fasting vs typical participant taking TF2 with a non-high-fat meal
[12] = final model, reference patient, multiplied by 0.9
[13] = fractional difference to reference category
[14] = bootstrap predicted, cancer patients
[15] = bootstrap predicted, cancer patients, 250 mg/day

SMILES: CN1CCC(COc2cnc(-c3cccc(Cn4nc(-c5cccc(C#N)c5)ccc4=O)c3)nc2)CC1 [Tepotinib]
- solubility [1]: low-solubility
- CF1 covariate on ka (clinical [2]; CF1 vs TF2): –0.442
- reduction of Fpar (clinical [2]; [10]): 65.6%
- reduction of ka (clinical [2]; [10]): 44.2%
- TF1* covariate on ka (clinical [2]; TF1* (finely micronized) vs TF2): 0.674
- TF1 covariate on ka (clinical [2]; TF1 vs TF2): 0.305
- TF3 covariate on Fpar (clinical [2]; TF3 vs TF2): 0.154
- CF1 covariate on Fpar (clinical [2]; capsule formulation 1 (non-micronized) vs TF2): –0.656
- influence of gefitinib co-administration on tepotinib PK (clinical [2]; covariate analysis): No statistically significant influence
- reduction of Fpar (clinical [2]; [11]): 20.9%
- reduction of ka (clinical [2]; [11]): 56.1%
- DOSE covariate on Fpar (clinical [2]; final model): –0.0412 /100 mg
- D1 (zero-order absorption duration) (clinical [2]; final model, reference patient): 4.09 h
- CLpar/F (apparent clearance) (clinical [2]; final model, reference patient, 500 mg TF2, fed non-high-fat meal, multiplied by 0.9 for salt to base): 20.4 L/h
- ka (first-order absorption rate constant) (clinical [2]; final model, reference patient, TF2, fed non-high-fat meal): 0.278 h⁻¹
- Qpar/F (clinical [2]; [12]): 1.32 L/h
- Vp,par/F (clinical [2]; [12]): 1180 L
- Vc,par/F (clinical [2]; final model, reference patient, multiplied by 0.9 for salt to base): 1020 L
- Colorectal cancer covariate on CLpar/F (clinical [2]; fractional difference): –0.281
- Hepatocellular carcinoma covariate on CLpar/F (clinical [2]; fractional difference): 0.130
- NCI-ODG class > 0 covariate on Fpar (clinical [2]; fractional difference): –0.0729
- Non-small cell lung cancer covariate on Vc,par/F (clinical [2]; fractional difference): –0.232
- Patient/participant covariate on Vp,par/F (clinical [2]; fractional difference): –0.810
- Study MS200095-0028 covariate on CLpar/F (clinical [2]; fractional difference): –0.115
- μ-Opioids covariate on CLpar/F (clinical [2]; fractional difference): –0.167
- Fasting state covariate on D1 (clinical [2]; [13]): –0.370
- Fasting state covariate on Fpar (clinical [2]; [13]): –0.209
- Fasting state covariate on ka (clinical [2]; [13]): –0.561
- High-fat meal covariate on Fpar (clinical [2]; [13]): 0.320
- half-life (clinical [2]; human, in vivo): ~32 h
- exposure increase between 500 and 1400 mg (clinical [2]; mostly CF2, Study 001): doubling
- reduction of bioavailability by liver dysfunction (NCI-ODWG) (clinical [2]; oral administration): 7.29%
- Age covariate on Vc,par/F (clinical [2]; power model): 0.219
- Body weight at baseline covariate on Fpar (clinical [2]; power model): –0.475
- INR at baseline covariate on Qpar/F (clinical [2]; power model): 3.81
- Serum albumin at baseline covariate on Qpar/F (clinical [2]; power model): 4.14
- eGFR at baseline covariate on CLpar/F (clinical [2]; power model): 0.199
- time dependence of PK (clinical [2]; single dose vs steady state): time-independent
- CLpar (clinical [2]; eGFR 30 mL/min/1.73 m^2): 16.2 L/h
- CLpar (clinical [2]; eGFR 60 mL/min/1.73 m^2): 18.6 L/h
- CLpar (clinical [2]; eGFR 80 mL/min/1.73 m^2): 19.7 L/h
- CLpar (clinical [2]; eGFR 110 mL/min/1.73 m^2): 20.9 L/h
- dose proportionality of PK (clinical [2]; up to the therapeutic dose of 500 mg): approximately dose-proportional
- time to maximum concentration (Tmax) ([3]; steady state, fed conditions): approximately 8 h
- terminal elimination half-life [3]: approximately 32 h
- CLpar, mean ([4]; bootstrap predicted typical individual, cancer patients, multiplied by 0.9): 19.3 L/h
- Fpar actual doses, mean [4, 14]: 1.12
- Tss (time to steady-state), mean [4, 14]: 128.3 h
- t1/2eff (effective half-life), mean [4, 14]: 32.1 h
- Fpar 250 mg, mean ([4]; bootstrap predicted, cancer patients, 250 mg): 1.04
- C max, ss 250 mg, mean [4, 15]: 683 ng/mL
- Ctrough,ss 250 mg, mean [4, 15]: 523 ng/mL
- Fpar 500 mg, mean ([4]; bootstrap predicted, cancer patients, 500 mg): 0.94
- Ctrough,ss 500 mg, mean ([4]; bootstrap predicted, cancer patients, 500 mg/day): 952 ng/mL
- Vss, mean ([4]; bootstrap predicted, cancer patients, multiplied by 0.9): 2,091 L
- AUCτ,ss higher in moderate renal impairment ([4]; eGFR 39.4-59 vs mean observed eGFR 99.8 mL/min/1.73 m^2, forest plot): 2%
- effect of covariates on tepotinib AUC ([4]; race, hepatic impairment, renal impairment, age, sex, body weight, opioid analgesics or gefitinib, 90% CIs within 80–125%): no or marginal effects
- AUC (clinical [5]; 250 mg/day): 12300 ng·h/mL
- half-life (clinical [5]; 500 mg): 102 h
- AUC (clinical [5]; 500 mg/day): 22300 ng·h/mL
- Cmax (clinical [5]; 500 mg/day): 1240 ng/mL
- share of administered dose of any single metabolic pathway ([6]; based on in vitro studies and human mass balance data): ≤ 25%
- absolute bioavailability [6]: 72%
- contribution to total circulating radioactivity [6]: 55%
- total radiolabeled material excreted via feces ([6]; mass balance study): 77.9%
- urinary excretion recovery ([6]; mass balance study): 13.6%
- increase in tepotinib exposure in the presence of food [7]: two-fold
- effect of co-administration of tepotinib with gefitinib on exposure [8]: no effect
- total plasma AUC lower in moderate hepatic impairment than healthy participants [9]: 13%

SMILES: COc1cc2ncnc(Nc3ccc(F)c(Cl)c3)c2cc1OCCCN1CCOCC1 [gefitinib, reference compound]
- effect of co-administration of tepotinib with gefitinib on exposure [8]: no effect
